In US20180064829A1, “FLUORESCENT BISPHOSPHONATE ANALOGS” (University of Southern California, priority 2015, published 2018):
Where two headings read alike, the source gives them in different places.

Columns and labels:
[1] = assumed the same as the corresponding fluorescent dye, cited from earlier work
[2] = UV-VIS absorption and fluorescence emission spectra; format: physicochemical; conditions: 0.1M phosphate buffer (1x PBS for 7d5); ± 1 nm error
Description: All labeled samples were dissolved in water and diluted with 0.1 M phosphate buffer or 1×PBS (for 7d5). Assuming that the labeled bisphosphonates have the same extinction coefficient (E) as the carboxylic acid of the free fluorescent label, the final concentrations for all labeled products were calculated from UV-VIS absorption spectra at λ=493 nm (ε=73000 M^−1 cm^−1 at pH 7.2) for FAM conjugates (7a1-7a3, 7b1, 7c1, 7d1-7d2, 7e1-7e2, 7f1-7f2), λ=567.5 nm (ε=114850 M^−1cm^−1 at pH 7.5) for RhR-X conjugates (7a4, 7b2, 7c2), λ=580 nm (c=72000 M^−1cm^−1 at pH 8.0) for ROX conjugates (7a5, 7b3), λ=648 nm (ε=240000 M^−1cm^−1 at pH 7.2) for AF647 conjugates (7a6, 7b4, 7d3), λ=774 nm (ε=240000 M^−1cm^−1 at pH 7.4) for 800CW conjugates (7d4), λ=644 nm (ε=271000 M^−1cm^−1 at pH 7.4, 1×PBS) for Sulfo-Cy5 conjugates (7d5).
Emission spectra for FAM and RhR-X conjugates were recorded using an excitation wavelength of 490 nm or 520 nm, respectively. Emission spectra for AF647 conjugates and Sulfo-Cy5 conjugates were recorded using an excitation wavelength of 600 nm. Emission spectra of 5(6)-ROX conjugates were recorded using an excitation wavelength of 575 nm. Emission spectra of IRDye CW800 conjugate was recorded using an excitation wavelength of 750 nm. The set-up of excitation slit, emission slit, integration time and increment were determined to get optimal spectra for each compound respectively, depending on the sample concentration and spectrometer used.

Row | Molecule | Extinction coefficient ([1]; pH 7.2, 0.1M phosphate buffer) | Maximum absorption wavelength (λmax (abs), nm) [2] [nm] | Maximum emission wavelength (λmax (em), nm) [2] [nm] | Extinction coefficient ([1]; pH 7.5, 0.1M phosphate buffer) | Extinction coefficient ([1]; 1x PBS, pH 7.4) | Extinction coefficient ([1]; pH 7.0, 0.1M phosphate buffer)
1 | O=C(NCC(O)C[n+]1cc(CC(O)(P(=O)(O)O)P(=O)(O)O)n2ccccc21)c1ccc(-c2c3ccc(=O)cc-3oc3cc(O)ccc23)c(C(=O)O)c1 (stereo not drawn) [Compound 5-FAM-MIN, 1-(3-(3-carboxy-4-(6-hydroxy-3-oxo-3H-xanthen-9-yl)benzamido)-2-hydroxypropyl)-3-(2-hydroxy-2,2-diphosphonoethyl)imidazo[1,2-a]pyridin-1-ium] | 73,000 (pH 7.2) M^−1cm^−1 | 493 | 522 |  |  | 
2 | O=C(NCC(O)C[n+]1cc(CC(O)(C(=O)O)P(=O)(O)O)n2ccccc21)c1ccc(-c2c3ccc(=O)cc-3oc3cc(O)ccc23)c(C(=O)O)c1 (stereo not drawn) [Compound 5-FAM-MINPC, 3-(2-carboxy-2-hydroxy-2-phosphonoethyl)-1-(3-(3-carboxy-4-(6-hydroxy-3-oxo-3H-xanthen-9-yl)benzamido)-2-hydroxypropyl)imidazo[1,2-a]pyridin-1-ium] | 73,000 (pH 7.2) M^−1cm^−1 | 493 | 522 |  |  | 
3 | CCN(CC)c1ccc2c(-c3ccc(S(=O)(=O)NCCCCCC(=O)NCC(O)C[n+]4cccc(CC(O)(C(=O)O)P(=O)(O)O)c4)cc3S(=O)(=O)O)c3ccc(=[N+](CC)CC)cc-3oc2c1 (stereo not drawn) [5(6)-RhR-RISPC, 3-(2-carboxy-2-hydroxy-2-phosphonoethyl)-1-{3-[6-({4-[6-(diethylamino)-3-(diethylimino)-3H-xanthen-9-yl]-3-sulfobenzene}sulfonamido)hexanamido]-2-hydroxypropyl}pyridinium] |  | 568 | 589 | 114,850 (pH 7.5) M^−1cm^−1 |  | 
4 | CN1/C(=C/C=C/C=C/C2=[N+](CCCCCC(=O)NCC(O)C[n+]3ccn(CC(O)(P(=O)(O)O)P(=O)(O)O)c3)c3ccc(S(=O)(=O)[O-])cc3C2(C)C)C(C)(C)c2cc(S(=O)(=O)[O-])ccc21 (stereo not drawn) [Sulfo-Cy5-ZOL, 1-(6-((2-hydroxy-3-(1-(2-hydroxy-2,2-diphosphonoethyl)-1H-imidazol-3-ium-3-yl)propyl)amino)-6-oxohexyl)-3,3-dimethyl-2-((1E,3E,5E)-5-(1,3,3-trimethyl-5-sulfonatoindolin-2-ylidene)penta-1,3-dien-1-yl)-3H-indol-1-ium-5-sulfonate] |  | 644 | 663 |  | 271,000 (1x PBS, pH 7.4) M^−1cm^−1 | 
5 | CC1(C)C(C=CC=CC=C2N(CCCS(=O)(=O)O)c3ccc(S(=O)(=O)O)cc3C2(C)CCCCCC(=O)NCC(O)C[n+]2cccc(CC(O)(C(=O)O)P(=O)(O)O)c2)=[N+](CCCS(=O)(=O)O)c2ccc(S(=O)(=O)O)cc21 (stereo not drawn) [AF647-RISPC, 2-(5-(3-(6-((3-(3-(2-carboxy-2-hydroxy-2-phosphonoethyl)pyridin-1-ium-1-yl)-2-hydroxypropyl)amino)-6-oxohexyl)-3-methyl-5-sulfo-1-(3-sulfopropyl)indolin-2-ylidene)penta-1,3-dien-1-yl)-3,3-dimethyl-5-sulfo-1-(3-sulfopropyl)-3H-indol-1-ium] |  | 648 | 666 |  |  | 240,000 (pH 7.0) M^−1cm^−1
6 | 2-(5-(3-(6-((2-hydroxy-3-(1-(2-hydroxy-2,2-diphosphonoethyl)-1H-imidazol-3-ium-3-yl)propyl)amino)-6-oxohexyl)-3-methyl-5-sulfo-1-(3-sulfopropyl)indolin-2-ylidene)penta-1,3-dien-1-yl)-3,3-dimethyl-5-sulfo-1-(3-sulfopropyl)-3H-indol-1-ium [AF647-ZOL] |  | 648.5 | 666 |  |  | 240,000 (pH 7.0) M^−1cm^−1
